The supplement of paper PMC10307832

Columns and labels:
Test in all cases: relative viability (nuclei count vs DMSO), 5 days (fraction); higher = more cells survive
MLN4924 + Tozasertib = compound: NS(=O)(=O)OC[C@@H]1C[C@@H](n2ccc3c(N[C@H]4CCc5ccccc54)ncnc32)C[C@@H]1O [MLN4924] + Cc1cc(Nc2cc(N3CCN(C)CC3)nc(Sc3ccc(NC(=O)C4CC4)cc3)n2)n[nH]1 [Tozasertib] (partner 0.1 µM)
In short: (§1)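 Lung cancer cell lines in 1536-well plates were dosed by pin tool the day after seeding, either with one drug alone or with a fixed anchor-drug dose plus five library-drug doses (not always all listed) in √10 steps. After 5 days, cells were fixed and their nuclei stained in one step (final 0.05% Triton X-100, 1% formaldehyde, 1 ug/ml Hoechst), then counted on 4× images. Relative viability is the nuclei count in treated wells divided by that in vehicle wells. Values are medians of duplicate plates.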

Carboplatin + OSI-027 = compound: C1CC(C1)(C(=O)O)C(=O)O.[NH2-].[NH2-].[Pt+2] [Carboplatin] + COc1cccc2cc(-c3nc([C@H]4CC[C@H](C(=O)O)CC4)n4ncnc(N)c34)[nH]c12 [OSI-027] (partner 0.5 µM)
In short: as §1

Carboplatin + Trametinib = compound: C1CC(C1)(C(=O)O)C(=O)O.[NH2-].[NH2-].[Pt+2] [Carboplatin] + CC(=O)Nc1cccc(-n2c(=O)n(C3CC3)c(=O)c3c(Nc4ccc(I)cc4F)n(C)c(=O)c(C)c32)c1 [Trametinib] (partner 0.02 µM)
In short: as §1

MLN4924 + Linsitinib = compound: NS(=O)(=O)OC[C@@H]1C[C@@H](n2ccc3c(N[C@H]4CCc5ccccc54)ncnc32)C[C@@H]1O [MLN4924] + C[C@]1(O)C[C@@H](c2nc(-c3ccc4ccc(-c5ccccc5)nc4c3)c3c(N)nccn32)C1 [Linsitinib] (partner 1 µM)
In short: as §1

Cell Line	relative viability (MLN4924 + Tozasertib; first compound 0.04 µM)	relative viability (MLN4924 + Tozasertib; first compound 0.1265 µM)	relative viability (MLN4924 + Tozasertib; first compound 0.4 µM)	relative viability (MLN4924 + Tozasertib; first compound 1.265 µM)	relative viability (MLN4924 + Tozasertib; first compound 4 µM)	relative viability (Carboplatin + OSI-027; first compound 0.08 µM)	relative viability (Carboplatin + OSI-027; first compound 0.253 µM)	relative viability (Carboplatin + OSI-027; first compound 0.8 µM)	relative viability (Carboplatin + OSI-027; first compound 2.53 µM)	relative viability (Carboplatin + OSI-027; first compound 8 µM)	relative viability (Carboplatin + Trametinib; first compound 0.08 µM)	relative viability (Carboplatin + Trametinib; first compound 0.253 µM)	relative viability (Carboplatin + Trametinib; first compound 0.8 µM)	relative viability (Carboplatin + Trametinib; first compound 2.53 µM)	relative viability (Carboplatin + Trametinib; first compound 8 µM)	relative viability (MLN4924 + Linsitinib; first compound 0.04 µM)	relative viability (MLN4924 + Linsitinib; first compound 0.1265 µM)	relative viability (MLN4924 + Linsitinib; first compound 0.4 µM)	relative viability (MLN4924 + Linsitinib; first compound 1.265 µM)	relative viability (MLN4924 + Linsitinib; first compound 4 µM)
LU99A	0.251	0.244	0.224	0.178	0.165	0.307	0.299	0.269	0.3	0.283	0.602	0.634	0.537	0.55	0.418	0.469	0.332	0.254	0.147	0.177
LXF-289	0.194	0.162	0.155	0.083	0.0804	0.882	0.871	0.816	0.828	0.716	0.671	0.717	0.674	0.712	0.656	0.785	0.645	0.417	0.224	0.143
NCI-H23	0.367	0.388	0.235	0.176	0.141	0.843	0.599	0.671	0.575	0.435	0.414	0.425	0.364	0.366	0.389	0.632	0.405	0.203	0.135	0.149
NCI-H322M	0.479	0.537	0.434	0.26	0.325	0.544	0.503	0.599	0.506	0.408	0.543	0.488	0.537	0.552	0.525	0.86	0.908	0.913	0.262	0.328
NCI-H358	0.108	0.0992	0.0886	0.0878	0.0989	1	0.878	0.8	0.843	0.611	0.145	0.148	0.121	0.16	0.14	0.918	1.06	0.304	0.183	0.181
NCI-H441	0.674	0.444	0.329	0.236	0.22	0.715	0.668	0.767	0.696	0.451	0.556	0.448	0.479	0.467	0.371	0.47	0.374	0.205	0.111	0.159
NCI-H460	0.464	0.484	0.421	0.228	0.0266	0.778	0.708	0.631	0.332	0.0817	0.161	0.139	0.155	0.0949	0.0458	0.838	0.733	0.113	0.0176	0.0132
NCI-H520	0.461	0.513	0.425	0.204	0.25	0.245	0.237	0.317	0.289	0.253	0.856	0.812	0.724	0.766	0.484	0.587	0.413	0.312	0.239	0.185
NCI-H596	0.819	0.987	–	0.514	0.528	0.909	0.803	0.781	0.654	0.514	0.846	0.845	0.722	0.645	0.518	1.2	1.3	0.744	0.853	0.304
NCI-H647	0.281	0.181	0.149	0.0334	0.0369	0.724	0.637	0.692	0.57	0.575	0.533	0.483	0.413	0.469	0.457	0.709	0.499	0.137	0.0815	0.0619
NCI-H650	0.584	0.356	0.307	0.161	0.187	0.526	0.514	0.601	0.539	0.356	1.01	1.08	1	0.849	0.818	0.611	0.604	0.266	0.186	0.174
NCI-H661	0.343	0.329	0.359	0.338	0.375	0.758	0.824	0.66	0.578	0.478	0.58	0.547	0.591	0.554	0.539	0.636	0.757	0.576	0.258	0.247
NCI-H727	0.677	0.462	0.432	0.335	0.328	0.732	0.547	0.555	0.617	0.551	0.391	0.4	0.349	0.376	0.392	0.402	0.169	0.234	0.21	0.24
NCI-H838	0.275	0.288	0.204	0.123	0.118	0.468	0.32	0.439	0.364	0.391	0.558	0.519	0.536	0.515	0.541	0.675	0.283	0.208	0.161	0.149
NCI-H1355	0.549	0.553	0.576	0.3	0.204	0.476	0.375	0.413	0.377	0.415	0.45	0.438	0.474	0.403	0.367	0.875	0.704	0.789	0.207	0.211
NCI-H1395	0.72	0.609	0.475	0.397	0.337	0.83	0.597	0.674	0.527	0.52	1.05	1.03	1.01	0.742	0.618	0.991	0.771	0.605	0.384	0.377
